Measurements from patent US20230346827A1 (priority 2020, published 2023).
Marks after values point to notes of the source that are not given here.

Key:
[1] = system: differentiated lung myofibroblasts + (TNFα and TGFβ); assay: BioMAP MyoF system; assay type: cell-based, human; conditions: annotated relative to vehicle controls
Excerpt: (§1) Cell types and stimuli used in each system are as follows: 3C system [HUVEC + (IL-1β, TNFα and IFNy)], 4H system [HUVEC + (IL-4 and histamine)], LPS system [PBMC and HUVEC + LPS (TLR4 ligand)], SAg system [PBMC and HUVEC + TCR ligands], BT system [CD19+ B cells and PBMC + (α-IgM and TCR ligands)], BF4T system [bronchial epithelial cells and HDFn + (TNFα and IL-4)], BE3C system [bronchial epithelial cells + (IL-1β, TNFα and IFNy)], CASM3C system [coronary artery smooth muscle cells + (IL-1 β, TNFα and IFNy)], HDF3CGF system [HDFn + (IL-1β, TNFα, IFNy, EGF, bFGF and PDGF-BB)], KF3CT system [keratinocytes and HDFn + (IL-1β, TNFα, IFNy and TGFβ)], MyoF system [differentiated lung myofibroblasts + (TNFα and TGFβ)] and Mphg system [HUVEC and M1 macrophages + Zymosan (TLR2 ligand)].
(§2) Systems are derived from either single cell types or co-culture systems. Adherent cell types are cultured in 96 or 384-well plates until confluence, followed by the addition of PBMC (SAg and LPS systems). […] Soluble factors from supernatants are quantified using either HTRF® detection, bead-based multiplex immunoassay or capture ELISA. Overt adverse effects of test agents on cell proliferation and viability (cytotoxicity) are detected by sulforhodamine B (SRB) staining, for adherent cells, and alamarBlue® reduction for cells in suspension. […]

[2] = system: rats subjected to sTBI; assay: sTBI rats, LMW-DS 15 mg/kg s.c.: HPLC of brain free amino acids (Example 3); assay type: in vivo, rat
[3] = system: PBMC and HUVEC + TCR ligands; assay: BioMAP SAg system; assay type: cell-based, human; conditions: annotated relative to vehicle controls
Excerpt: as §1, §2

[4] = Acute phase 1: drug 30 min, sacrifice 2 d post-TBI
[5] = Acute phase 2: drug 30 min, sacrifice 7 d post-TBI
[6] = Chronic phase: drug 3 d, sacrifice 7 d post-TBI

sodium salt of dextran sulfate [LMW-DS]
Increased biomarker activity [1]: IL-8 | ALA [2, 4]: 0.50±0.12^a µmol/g (w.w.) | ARG [2, 4]: 0.13±0.02^b,d µmol/g (w.w.) | ASN [2, 4]: 0.12±0.02^i µmol/g (w.w.) | ASP [2, 4]: 2.40±0.56^d,i µmol/g (w.w.) | CITR [2, 4]: 0.018 ± 0.004 µmol/g (w.w.) | GABA [2, 4]: 1.43±0.25^a µmol/g (w.w.) | GLN [2, 4]: 4.78±1.09^a µmol/g (w.w.) | GLU [2, 4]: 9.81±1.66^i µmol/g (w.w.) | GLY [2, 4]: 0.83±0.25^a,c µmol/g (w.w.) | HIS [2, 4]: 0.068±0.015^b µmol/g (w.w.) | L-Cystat [2, 4]: 0.185±0.031^b,c,i µmol/g (w.w.) | MET [2, 4]: 0.016±0.005^d,j µmol/g (w.w.) | SAH [2, 4]: 0.033±0.008^b,c,j µmol/g (w.w.) | SER [2, 4]: 0.88±0.25^a µmol/g (w.w.) | TAU [2, 4]: 4.86±00.85^b µmol/g (w.w.) | THR [2, 4]: 0.92±0.29^a µmol/g (w.w.) | TYR [2, 4]: 0.15 ± 0.03 µmol/g (w.w.) | VAL [2, 4]: 0.042 ± 0.011 µmol/g (w.w.) | ALA [2, 5]: 0.52±0.24^a,e µmol/g (w.w.) | ARG [2, 5]: 0.16 ± 0.03 µmol/g (w.w.) | ASN [2, 5]: 0.13±0.03^i µmol/g (w.w.) | ASP [2, 5]: 2.94±0.98^f,j µmol/g (w.w.) | CITR [2, 5]: 0.018 ± 0.008 µmol/g (w.w.) | GABA [2, 5]: 1.60±0.24^a µmol/g (w.w.) | GLN [2, 5]: 3.66 ± 0.41 µmol/g (w.w.) | GLU [2, 5]: 9.93±1.56^e,i µmol/g (w.w.) | GLY [2, 5]: 0.71±0.16^f,i µmol/g (w.w.) | HIS [2, 5]: 0.055 ± 0.019 µmol/g (w.w.) | L-Cystat [2, 5]: 0.173±0.038^b,f,i µmol/g (w.w.) | MET [2, 5]: 0.022±0.006^b,e,i µmol/g (w.w.) | SAH [2, 5]: 0.026±0.010^f,i µmol/g (w.w.) | SER [2, 5]: 0.71±0.28^b µmol/g (w.w.) | TAU [2, 5]: 3.80 ± 1.19 µmol/g (w.w.) | THR [2, 5]: 0.66 ± 0.23 µmol/g (w.w.) | TYR [2, 5]: 0.172±0.046^b,f µmol/g (w.w.) | VAL [2, 5]: 0.057 ± 0.017 µmol/g (w.w.) | ALA [2, 6]: 0.57±0.28^a,e µmol/g (w.w.) | ARG [2, 6]: 0.14 ± 0.02 µmol/g (w.w.) | ASN [2, 6]: 0.18±0.02^a µmol/g (w.w.) | ASP [2, 6]: 4.46±0.70^a,f µmol/g (w.w.) | CITR [2, 6]: 0.020 ± 0.006 µmol/g (w.w.) | GABA [2, 6]: 1.85±0.65^a µmol/g (w.w.) | GLN [2, 6]: 3.98 ± 0.34 µmol/g (w.w.) | GLU [2, 6]: 13.58±1.28^a µmol/g (w.w.) | GLY [2, 6]: 1.05±0.13^a,f µmol/g (w.w.) | HIS [2, 6]: 0.047 ± 0.021 µmol/g (w.w.) | L-Cystat [2, 6]: 0.26±0.05^a,f µmol/g (w.w.) | MET [2, 6]: 0.009±0.004^b µmol/g (w.w.) | SAH [2, 6]: 0.050±0.013^a µmol/g (w.w.) | SER [2, 6]: 0.93±0.27^a,e µmol/g (w.w.) | TAU [2, 6]: 4.49±0.43^a µmol/g (w.w.) | THR [2, 6]: 0.75±0.24^a,e µmol/g (w.w.) | TYR [2, 6]: 0.21±0.05^f µmol/g (w.w.) | VAL [2, 6]: 0.040±0.016^b µmol/g (w.w.) | glutamate excitotoxicity marker ([2]; LMW-DS injected at 3 days after sTBI): no efficacy | increase in glutamate (GLU) induced by sTBI ([2]; drug administered early post-injury (30 min following sTBI)): remarkable inhibition | Increased biomarker activity [3]: IL-8
